Experimental data published in patent US12527833B2, “Pharmaceutical composition made from hydrophobic phytochemicals dispersed in sesame oil to enhance bioactivity” (ARJUNA NATURAL PVT. LTD., priority 2017, dated 2026).

System: Acute Musculoskeletal Pain
Assay: Randomized active controlled study of BSC-4 in adult patients with acute musculoskeletal pain (NRS, PRS, PPR, MPR, PGIC)
Type: in vivo, human
Excerpt: A Randomized Active Controlled Study to Assess the Efficacy of Sesame Oil Loaded with Boswellia Extract and Curcuminoid Composition (BSC-4) in Adult Patients with Acute Musculoskeletal Pain. Sample size for the study: 88 Subjects were randomized with 1:1 ratio of male and female in each group. Subject selection—Subjects were selected from the screening site who were ready to give a voluntary informed consent and who meets study inclusion criteria. • 1. Adult patient, Male or female between 18-65 years of age. • 2. A score of 5 or above on the Numerical Rating Scale. • 3. Patients having acute musculoskeletal pain which occurred within 24 hours before presentation e.g. headache musculoskeletal injuries, myalgia, neck pain, limb pain, low back pain, joint pain, widespread musculoskeletal pain, painful uncomplicated acute soft tissue injury of the upper or lower extremity, including acute injuries of ligaments, tendons, or muscles (including Grade 1), not requiring admittance to hospital. • 4. Willing to give voluntary informed consent. Visit 1, randomization; subject were provided BSC-4 or Paracetamol as per the pre-documented randomization list accessed only by pharmacist. Patients were entering the NRS, PRS, and PGIC in the diary before and after 2 hour of taking the dose. Follow up calls were made over phone for patents compliance to treatment, diary completion. The follow up on day 3 the patient were reminded to bring the diary for review and bottle for IP accountability at the next visit. Visit 2, Physical examination, vitals, and patient diary were checked. Post dose (2 hours) pain intensity using NRS, pain relief using categorical PRS, and patient's global impression of change (PGIC) were recoded. Visit 3, next visit on 6th day from the visit 1, Patients entered the NRS, PRS, and PGIC in the diary before and after 2 hrs of taking the dose. Follow up calls were made over phone for their compliance to treatment, diary completion. The follow up on day 6 the patient were reminded to bring the diary for review and bottle for IP accountability at the next visit. Physical examination, vitals, and patient diary were checked. Post dose (2 hours) pain intensity using NRS, pain relief using categorical PRS, and patient's global impression of change (PGIC) were recorded. The NRS is an 11-point scales in which 0 represents ‘no pain’ and 10 represents the worst pain possible. The patient were asked to rate their pain intensity as a number from 0 to 10. Alternatively, for better conception it may be explained as below. The NRS were recorded on screening and those patients who have 5 or above score only were enrolled into the study. After the first dose the patient were give the pain intensity rating every 30 minutes up to 6 hours post dose for calculating SPID 6 hrs. The NRS was included in the diary and the patient was required to give the pain intensity every morning before taking the dose and 2 hrs after dose until the end of the study. The average of the recorded data is provided in a graphical form in FIG. 7 (b). The average percentage change of patents when they visited the centre on day 3 and day 7 is provided below. The pain relief scale is a categorical scale having a positive progression from ‘No relief’ to ‘complete relief’. After the first dose the patient rated the pain relief every 30 minutes up to 6 hours for the assessment of Total pain relief 6 hours. The average pain relief score for the 6 hours test was recorded and represented in graphical form in FIG. 8 (a). The pain relief scale was included in the diary and the patient was required to give the pain relief every morning before taking the dose and 2 hours after dose until the end of the study. The average pain relief score for the seven days test was recorded in diary and represented in graphical form in FIG. 8 (b). After dosing the two stop watches were given to the patient. The patient had to stop one of the watches when they felt relief from pain. […]

CC(=O)Nc1ccc(O)cc1 [Paracetamol]
NRS score in six hours (FIG. 7(a), 0-10 scale, baseline around 6): 2 | NRS score by the end of 7th day (FIG. 7(b), 0-10 scale, baseline close to 6): ~1 | PRS score in six hours (FIG. 8(a), scale 1 No Relief to 5 Complete Relief, baseline around 1): 3 | PRS score by the end of 7th day (FIG. 8(b), scale 1-5, baseline close to 1): ~3 | Percentage change in pain intensity at 6 hours (NRS, 6 hours after first dose): 72.1% | Percentage change in pain intensity in 7 days, day 3 (NRS, day 3): 24.8% | Percentage change in pain intensity in 7 days, day 7 (NRS, day 7): 83.62% | Percentage change in pain relief at 6 hours (PRS, 6 hours after first dose, threshold reached by the n patients in the same cell): > 75% | Number of patients (n) with the stated percentage change in pain relief at 6 hours (PRS, 6 hours, of n = 44 per group, >75% change): 30 | Number of patients (n) with the stated percentage change in pain relief, Day 3 (PRS, Day 3, of n = 44 per group, >50% change): 20 | Percentage change in pain relief, Day 3 (PRS, Day 3, threshold reached by the n patients in the same cell): > 50% | Number of patients (n) with the stated percentage change in pain relief, Day 7 (PRS, Day 7, of n = 44 per group, >75% change): 37 | Percentage change in pain relief, Day 7 (PRS, Day 7, threshold reached by the n patients in the same cell): > 75% | Meaningful pain relief (average time to meaningful pain relief (MPR), censored at 6 hours): 4.51 h | Perceptible pain relief (average time to perceptible pain relief (PPR), stop watch): 2.62 h | PGIC score, Day 2 (scale 1 Very Much Improved to 7 Very Much Worse, Day 2): 3 | PGIC score, Day 3 (scale 1 Very Much Improved to 7 Very Much Worse, Day 3): 3 | PGIC score, Day 4 (scale 1 Very Much Improved to 7 Very Much Worse, Day 4): 3 | PGIC score, Day 5 (scale 1 Very Much Improved to 7 Very Much Worse, Day 5): 3 | PGIC score, Day 6 (scale 1 Very Much Improved to 7 Very Much Worse, Day 6): 3 | PGIC score, Day 7 (scale 1 Very Much Improved to 7 Very Much Worse, Day 7): 2
